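GI50 = concentration required for 50% inhibition of growth. The concentration for full growth arrest is given as TGI.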
Experiments:
Assay in all cases: inhibition of tumour cell growth, NCI panel, 384-well format
[1] = test system: ACHN renal
[2] = test system: OVCAR-8 ovarian
[3] = test system: SF-295 CNS
[4] = test system: COLO 205 colon
[5] = test system: DU-145 prostate
[6] = test system: OVCAR-5 ovarian
[7] = test system: HCC-2998 colon
[8] = test system: SF-539 CNS
[9] = test system: MDA-MB-231 breast
[10] = test system: CAKI-1 renal
[11] = test system: 786-0 renal
[12] = test system: A549 NSCLC
[13] = test system: MDA-MB-435 melanoma
[14] = test system: SF-268 CNS
[15] = test system: SN12C renal
[16] = test system: HOP-62 NSCLC
[17] = test system: OVCAR-4 ovarian
[18] = test system: MCF7 breast
[19] = test system: HOP-92 NSCLC
[20] = test system: RXF 393 renal
[21] = test system: SK-MEL-2 melanoma
[22] = test system: SNB-19 CNS
[23] = test system: NCI-H522 lung
[24] = test system: NCI/ADR-RES ovarian
[25] = test system: UACC-62 melanoma
[26] = test system: MALME-3M melanoma
[27] = test system: SR leukemia
[28] = test system: IGROV1 ovarian
[29] = test system: UO-31 renal
[30] = test system: LOX IMVI melanoma
[31] = test system: BT-549 breast
[32] = test system: A498 renal
[33] = test system: PC-3 prostate
[34] = test system: K-562 leukemia
[35] = test system: MDA-MB-468 breast
[36] = test system: RPMI-8226 leukemia
[37] = test system: HCT-116 colon
[38] = test system: HT29 colon
[39] = test system: MOLT-4 leukemia
[40] = test system: SW-620 colon
[41] = test system: OVCAR-3 ovarian
[42] = test system: SK-OV-3 ovarian
[43] = test system: T-47D breast
[44] = test system: CCRF-CEM leukemia
[45] = test system: NCI-H322M lung
[46] = test system: TK-10 renal
[47] = test system: NCI-H23 lung
[48] = test system: SK-MEL-28 melanoma
[49] = test system: NCI-H460 NSCLC
[50] = test system: SK-MEL-5 melanoma
[51] = test system: HL-60(TB) leukemia
[52] = test system: NCI-H226 lung
[53] = test system: KM12 colon
[54] = test system: HCT-15 colon
[55] = test system: M14 melanoma
[56] = test system: U251 glioblastoma
[57] = test system: UACC-257 melanoma
[58] = test system: HS 578T breast
[59] = test system: EKVX NSCLC
[60] = test system: SNB-75 CNS

COc1cc(F)cc([C@@H](CO)NC(=O)[C@@H](C)N2Cc3ccc(-c4nc(NC5CCOCC5)ncc4Cl)cc3C2=O)c1
GI50 [1]: 5.8 µM
TGI [1]: 60.8 µM
GI50 [2]: 12.4 µM
TGI [2]: 28.2 µM
GI50 [3]: 15.2 µM
TGI [3]: 43 µM
GI50 [4]: < 0.01 µM
TGI [4]: 0.0246 µM
GI50 [5]: 11.3 µM
TGI [5]: 38.7 µM
GI50 [6]: 0.0102 µM
TGI [6]: > 100 µM
GI50 [7]: < 0.01 µM
TGI [7]: 0.0408 µM
GI50 [8]: 0.382 µM
TGI [8]: 15.6 µM
GI50 [9]: 0.0854 µM
TGI [9]: 19.1 µM
GI50 [10]: 0.096 µM
TGI [10]: 33.3 µM
GI50 [11]: 11.3 µM
TGI [11]: 34.1 µM
GI50 [12]: 0.0457 µM
TGI [12]: 17.3 µM
GI50 [13]: 0.0103 µM
TGI [13]: 20.1 µM
GI50 [14]: 25.5 µM
TGI [14]: 79.5 µM
GI50 [15]: 16.6 µM
TGI [15]: 85.4 µM
GI50 [16]: 0.218 µM
TGI [16]: 25.9 µM
GI50 [17]: 13.2 µM
TGI [17]: 39.3 µM
GI50 [18]: 16.5 µM
TGI [18]: 31.9 µM
GI50 [19]: 0.0249 µM
TGI [19]: 0.162 µM
GI50 [20]: 0.441 µM
TGI [20]: 16.9 µM
GI50 [21]: < 0.01 µM
TGI [21]: 0.0312 µM
GI50 [22]: 11 µM
TGI [22]: > 100 µM
GI50 [23]: 11.3 µM
TGI [23]: 27.4 µM
GI50 [24]: 14.7 µM
TGI [24]: 31.9 µM
GI50 [25]: < 0.01 µM
TGI [25]: 0.0427 µM
GI50 [26]: < 0.01 µM
TGI [26]: < 0.01 µM
GI50 [27]: 0.499 µM
TGI [27]: 14.7 µM
GI50 [28]: 0.145 µM
TGI [28]: 12.6 µM
GI50 [29]: 0.578 µM
TGI [29]: 20.1 µM
GI50 [30]: 0.0134 µM
TGI [30]: 0.0671 µM
GI50 [31]: 11.4 µM
TGI [31]: 23.8 µM
GI50 [32]: 10.4 µM
TGI [32]: 36.1 µM
GI50 [33]: 18.3 µM
TGI [33]: 36.2 µM
GI50 [34]: 0.409 µM
TGI [34]: 19 µM
GI50 [35]: 0.325 µM
TGI [35]: 10 µM
GI50 [36]: 0.224 µM
TGI [36]: 5.09 µM
GI50 [37]: 0.0137 µM
TGI [37]: 0.201 µM
GI50 [38]: < 0.01 µM
TGI [38]: 13.4 µM
GI50 [39]: 7.8 µM
TGI [39]: 20.2 µM
GI50 [40]: 0.0132 µM
TGI [40]: 19.3 µM
GI50 [41]: 13.9 µM
TGI [41]: 33.3 µM
GI50 [42]: 6.75 µM
TGI [42]: 63.2 µM
GI50 [43]: 11.7 µM
TGI [43]: 24.1 µM
GI50 [44]: 11.7 µM
TGI [44]: 24.7 µM
GI50 [45]: 0.0722 µM
TGI [45]: 25.8 µM
GI50 [46]: 0.821 µM
TGI [46]: 40.3 µM
GI50 [47]: < 0.01 µM
TGI [47]: 0.0221 µM
GI50 [48]: < 0.01 µM
TGI [48]: < 0.01 µM
GI50 [49]: 1.12 µM
TGI [49]: 31.3 µM
GI50 [50]: 0.0181 µM
TGI [50]: 12.1 µM
GI50 [51]: < 0.01 µM
TGI [51]: 0.0429 µM
GI50 [52]: 0.214 µM
TGI [52]: 16.1 µM
GI50 [53]: 0.0465 µM
TGI [53]: 16.4 µM
GI50 [54]: 14.4 µM
TGI [54]: 75.6 µM
GI50 [55]: < 0.01 µM
TGI [55]: 0.0138 µM
GI50 [56]: 0.46 µM
TGI [56]: 42.7 µM
GI50 [57]: < 0.01 µM
TGI [57]: 0.0209 µM

Cc1cc([N+](=O)[O-])ccc1NS(=O)(=O)c1cc(Cl)ccc1Cl
GI50 [1]: 14.4 µM
TGI [1]: 67.9 µM
GI50 [3]: 3.99 µM
TGI [3]: 22.1 µM
GI50 [4]: 17.1 µM
TGI [4]: 78 µM
GI50 [5]: 10.1 µM
TGI [5]: > 100 µM
GI50 [58]: 3.02 µM
TGI [58]: 10.6 µM
GI50 [59]: 3.64 µM
TGI [59]: 14.6 µM
GI50 [6]: 12.9 µM
TGI [6]: 44.1 µM
GI50 [7]: 5.29 µM
TGI [7]: 24.5 µM
GI50 [8]: 5.29 µM
TGI [8]: 20.1 µM
GI50 [9]: 5.07 µM
TGI [9]: 30.8 µM
GI50 [10]: 5.52 µM
TGI [10]: 39 µM
GI50 [11]: 7.49 µM
TGI [11]: 33.6 µM
GI50 [12]: 4.62 µM
TGI [12]: 24 µM
GI50 [13]: 3.21 µM
TGI [13]: 26.6 µM
GI50 [14]: 3.78 µM
TGI [14]: 27.5 µM
GI50 [15]: 5.83 µM
TGI [15]: 49.4 µM
GI50 [16]: 13.5 µM
TGI [16]: 35.5 µM
GI50 [17]: 6.02 µM
TGI [17]: > 100 µM
GI50 [18]: 7.65 µM
TGI [18]: 25.2 µM
GI50 [19]: 3.63 µM
TGI [19]: 16.4 µM
GI50 [20]: 4.56 µM
TGI [20]: 22.3 µM
GI50 [21]: 33.1 µM
TGI [21]: 49.5 µM
GI50 [22]: 5.5 µM
TGI [22]: 75.6 µM
GI50 [23]: 2.87 µM
TGI [23]: 8.65 µM
GI50 [24]: 3.26 µM
TGI [24]: 15.9 µM
GI50 [25]: 13.3 µM
TGI [25]: 33.3 µM
GI50 [26]: 5.38 µM
TGI [26]: 24.4 µM
GI50 [27]: 19.1 µM
TGI [27]: 33.3 µM
GI50 [28]: 18.9 µM
TGI [28]: > 100 µM
GI50 [29]: 12.4 µM
TGI [29]: 43.9 µM
GI50 [30]: 3.74 µM
TGI [30]: 13.3 µM
GI50 [31]: 3.08 µM
TGI [31]: 8.84 µM
GI50 [32]: 4.63 µM
TGI [32]: 22.6 µM
GI50 [33]: 3.59 µM
TGI [33]: 14.6 µM
GI50 [60]: 9.67 µM
TGI [60]: 35.4 µM
GI50 [34]: 7.36 µM
TGI [34]: 55.7 µM
GI50 [35]: 2.16 µM
TGI [35]: 9.32 µM
GI50 [36]: 2.09 µM
TGI [36]: 4.48 µM
GI50 [37]: 4.45 µM
TGI [37]: 16 µM
GI50 [38]: 4.53 µM
TGI [38]: > 100 µM
GI50 [39]: 7.48 µM
TGI [39]: 20.2 µM
GI50 [40]: 5.93 µM
TGI [40]: 46 µM
GI50 [41]: 3.56 µM
TGI [41]: 15.4 µM
GI50 [42]: 13.8 µM
TGI [42]: 49.8 µM
GI50 [43]: 2.65 µM
TGI [43]: 6.31 µM
GI50 [44]: 5.19 µM
TGI [44]: 18.4 µM
GI50 [45]: 3.85 µM
TGI [45]: 16.4 µM
GI50 [46]: 11.4 µM
TGI [46]: > 100 µM
GI50 [47]: 2.98 µM
TGI [47]: 13.1 µM
GI50 [48]: 5.46 µM
TGI [48]: 32.4 µM
GI50 [49]: 2.89 µM
TGI [49]: 11.6 µM
GI50 [50]: 2.45 µM
TGI [50]: 7.27 µM
GI50 [51]: 2.74 µM
TGI [51]: 5.97 µM
GI50 [52]: 6.27 µM
TGI [52]: 20.2 µM
GI50 [53]: 6.61 µM
TGI [53]: 43.9 µM
GI50 [54]: 3.44 µM
TGI [54]: 14.9 µM
GI50 [55]: 16.9 µM
TGI [55]: 68.3 µM
GI50 [56]: 2.91 µM
TGI [56]: 10.5 µM
GI50 [57]: 4.95 µM
TGI [57]: 19.2 µM

Reference: PubChem BioAssay (NCI)
